Measurements reported in ChEMBL document CHEMBL2331411, “Pyrrolopyrimidine inhibitors of DNA gyrase B (GyrB) and topoisomerase IV (ParE). Part I: Structure guided discovery and optimization of dual targeting agents with potent, broad-spectrum enzymatic activity” (Bioorg Med Chem Lett, 2013).
Converted amounts (≈) assume the structure as drawn.

Tests used:
[1] = Inhibition of Escherichia coli DNA topoisomerase 4 subunit B using ATP as substrate assessed as release of inorganic phosphate incubated for 10 mins prior to substrate addition measured after 30 mins by spectrophotometric analysis
[2] = Inhibition of Enterococcus faecalis DNA gyrase subunit B using ATP as substrate assessed as release of inorganic phosphate incubated for 10 mins prior to substrate addition measured after 30 mins by spectrophotometric analysis
[3] = Inhibition of Francisella tularensis DNA topoisomerase 4 subunit B using ATP as substrate assessed as release of inorganic phosphate incubated for 10 mins prior to substrate addition measured after 30 mins by spectrophotometric analysis
[4] = Inhibition of Enterococcus faecalis DNA topoisomerase 4 subunit B using ATP as substrate assessed as release of inorganic phosphate incubated for 10 mins prior to substrate addition measured after 30 mins by spectrophotometric analysis
[5] = Inhibition of Francisella tularensis DNA gyrase subunit B using ATP as substrate assessed as release of inorganic phosphate incubated for 10 mins prior to substrate addition measured after 30 mins by spectrophotometric analysis
[6] = tested on: Staphylococcus aureus; assay: Antibacterial activity against Staphylococcus aureus assessed as growth inhibition; type: functional
[7] = Inhibition of Acinetobacter baumannii DNA topoisomerase 4 subunit B using ATP as substrate assessed as release of inorganic phosphate incubated for 10 mins prior to substrate addition measured after 30 mins by spectrophotometric analysis

| Compound | Ki [1] [nM] | Ki [2] [nM] | Ki [3] [nM] | Ki [4] [nM] | Ki [5] [nM] | MIC [6] [µg/mL] | Ki [7] [nM] |
| --- | --- | --- | --- | --- | --- | --- | --- |
| CCc1[nH]c2nc(Sc3cnc4ccc[n+]([O-])c4c3)nc(N3CC[C@@H](N)C3)c2c1Cl | 5 | < 1 | 1 | 5 |  |  |  |
| CCc1[nH]c2nc(Sc3cnc4[nH][nH]c(=O)c4c3)nc(N3CC[C@@H](N)C3)c2c1Cl | 6 | 6 | 4 | 24 | 5 |  |  |
| CCc1[nH]c2nc(Sc3cccnc3)nc(Cl)c2c1C(F)F |  | 1700 | 400 | 1200 | 500 | 64 (≈ 188 µM) |  |
| CCc1[nH]c2nc(Sc3ccc4cccnc4c3)nc(N3CC[C@@H](N)C3)c2c1Cl | 80 | 4 | 27 | 148 | 10 |  |  |
| CCc1[nH]c2nc(Sc3cnc4nccnc4c3)nc(N3CC(N)C3)c2c1Cl | 39 | 4 | 4 | 65 | 7 |  |  |
| CCc1[nH]c2nc(Sc3cccnc3)nc(OC)c2c1C=O |  | 200 | 900 | 1200 | 800 |  |  |
| CCc1[nH]c2nc(Sc3cnc4nccnc4c3)nc(N3CCC(N)CC3)c2c1Cl | 36 | < 1 | 6 | 69 | 3 |  |  |
| CCc1[nH]c2nc(Sc3cncnc3)nc(N3CC4C(N)C4C3)c2c1Cl (configuration not stated) | 36 | 5 | 15 | 79 | 2 |  |  |
| CCc1[nH]c2nc(Sc3cncnc3)nc(N3CC[C@@H](N)C3)c2c1Cl | 127 | 4 | 36 | 157 | 8 |  |  |
| CCc1[nH]c2nc(Sc3cnc4nccnc4c3)nc(N3C[C@H]4CCCN[C@H]4C3)c2c1Cl | 17 | 9 | 10 | 29 | < 1 |  |  |
| CCc1[nH]c2nc(Sc3cnc4nccnc4c3)nc(N3CC[C@@H](N)C3)c2c1Cl | 11 | 2 | 4 | 23 | < 1 |  |  |
| CCc1[nH]c2nc(Sc3cnc4nccnc4c3)nc(N3C[C@H]4CCN[C@H]4C3)c2c1Cl | 6 | 6 | 9 | 19 | < 1 |  |  |
| CCc1[nH]c2nc(Sc3ccc4ccc(C(=O)O)nc4c3)nc(N3CC[C@@H](N)C3)c2c1Cl | 2 | < 1 | 4 | 4 |  |  |  |
| CCc1[nH]c2nc(Sc3ccc4cc5c(nc4c3)C(=O)OC5)nc(N3CC[C@@H](N)C3)c2c1Cl | < 1 | < 1 | 2 | < 1 |  |  |  |
| CCc1[nH]c2nc(Sc3ccc4ccc[n+]([O-])c4c3)nc(N3CC[C@@H](N)C3)c2c1Cl | 7 | < 1 | 3 | 15 |  |  |  |
| CCc1[nH]c2nc(Sc3cnc4ncc(=O)[nH]c4c3)nc(N3CC[C@@H](N)C3)c2c1Cl | 11 | < 1 | 6 | 13 | 1 |  |  |
| CCc1[nH]c2nc(Sc3ccc4nc[nH]c(=O)c4c3)nc(N3CC[C@@H](N)C3)c2c1Cl | 4 | < 1 | 2 | 14 |  |  |  |

| Compound | Ki [1] [nM] | Ki [2] [nM] | Ki [3] [nM] | Ki [4] [nM] | Ki [5] [nM] | MIC [6] [µg/mL] | Ki [7] [nM] |
| --- | --- | --- | --- | --- | --- | --- | --- |
| CCc1[nH]c2nc(Oc3cncnc3)nc(N3CC[C@@H](N)C3)c2c1Cl | 38 | < 1 | 15 | 84 | 3 |  |  |
| CCc1[nH]c2nc(Sc3cnc4nccnc4c3)nc(N3C[C@H]4CN[C@H]4C3)c2c1Cl | 2 | < 1 | 1 | 9 |  |  |  |
| CCc1[nH]c2nc(Sc3cnc4cccnc4c3)nc(N3CC4C(N)C4C3)c2c1Cl (configuration not stated) | 1 | 1 | 2 | 10 | < 1 |  |  |
| CCc1[nH]c2nc(Sc3cccnc3)nc(Cl)c2c1C(C)=O |  | 2000 | > 20000 | 1000 | 6600 | 64 (≈ 192 µM) |  |
| CCc1[nH]c2nc(Oc3cncnc3)nc(N3CC4C(N)C4C3)c2c1Cl (configuration not stated) | 4 | < 1 | 2 | 10 |  |  |  |
| CCc1[nH]c2nc(Sc3ccc4c(N5CCC(N)C5)cc(C(=O)O)nc4c3)nc(N3CC[C@@H](N)C3)c2c1Cl (some centres not stated) | 7 | < 1 | 6 | 19 |  |  |  |
| CCc1[nH]c2nc(Sc3cccnc3)nc(Cl)c2c1C=O |  | 800 | 8700 | 3700 | 1200 | 64 (≈ 201 µM) |  |
| CCc1[nH]c2nc(Sc3cccnc3)nc(Cl)c2c1Cl |  | 400 |  | 3500 | 500 | 4 (≈ 12.3 µM) | 2000 |
| CCc1[nH]c2nc(Sc3cccnc3)nc(Cl)c2c1Br |  | 300 | 1200 | 3500 | 400 | 2 (≈ 5.41 µM) |  |
| CCc1[nH]c2nc(Sc3cnc4nccnc4c3)nc(N3CC4C(N)C4C3)c2c1Cl (configuration not stated) | < 1 | < 1 |  | 4 |  |  |  |
| CCc1[nH]c2nc(Sc3ccc4[nH]cc(C(=O)O)c(=O)c4c3)nc(N3CC[C@@H](N)C3)c2c1Cl | < 1 | < 1 |  | 6 |  |  |  |
| CCc1[nH]c2nc(Sc3ccc4nc(N)n[n+]([O-])c4c3)nc(N3CC[C@@H](N)C3)c2c1Cl | 2 | < 1 |  | 7 |  |  |  |
| CCc1[nH]c2nc(Sc3ccc4cncnc4c3)nc(N3CC[C@@H](N)C3)c2c1Cl | 5 | < 1 | 2 | 7 |  |  |  |
| CCc1cc2c(Cl)nc(Sc3cccnc3)nc2[nH]1 |  | > 50000 |  |  |  | > 64 |  |
| CCc1[nH]c2nc(Sc3cnc4cccnc4c3)nc(N3CC[C@@H](N)C3)c2c1Cl | < 1 | < 1 |  | 2 |  |  |  |
| CCc1[nH]c2nc(Sc3ccc4c(c3)C(=O)NC4)nc(N3CC[C@@H](N)C3)c2c1Cl | 11 | 7 | 2 | 19 | 9 |  |  |
| CCc1[nH]c2nc(Oc3cnc4cccnc4c3)nc(N3CC4C(N)C4C3)c2c1Cl (configuration not stated) | < 1 | < 1 |  | 3 |  |  |  |
